Patent publication US20160000777A1, “METHODS OF USING HISTAMINE RECEPTOR AGONISTS AND ANTAGONISTS” (UNIVERSITY OF ROCHESTER, priority 2013, published 2016)

Tests used:
[1] = system: pro-Filaggrin (pro-FLG); settings: FIG. 6
Method: Human keratinocytes were isolated from neonatal foreskin as previously described (Poumay et al., “Basal Detachment of the Epidermis Using Dispase: Tissue Spatial Organization and Fate of Integrin alpha 6 beta 4 and Hemidesmosomes,” J Invest Dermatol 102:111-7 (1994), which is hereby incorporated by reference in its entirety). PHK were cultured in Keratinocyte-SFM (Invitrogen/Gibco, Grand Island, N.Y.) with 5 ng/ml human recombinant Epidermal Growth Factor 1-53 (EGF 1-53), 50 μg/ml Bovine Pituitary Extract (BEP), 1% Pen/Strep, and 0.2% Amphotericin B (Invitrogen/Gibco). To induce terminal differentiation PHK were grown in DMEM (Invitrogen/Gibco) with 1% Pen/Strep and 0.2% Amphotericin B (Invitrogen/Gibco). Where it is indicated, 10% heat-inactivated bovine serum (Invitrogen) was added to the differentiation media. […] The protein concentration of all samples was determined by BCA (Pierce). […] TJ integrity was assessed by trans-epithelial electrical resistance (TEER) and paracellular fluorescein flux (permeability). […] Keratinocyte differentiation was assessed by examining filaggrin, loricrin and keratin 10 expression by Western blot. Expression of HRs were evaluated by qPCR in skin biopsies taken from lesional and nonlesional sites in AD subjects (n=6-8) and non-atopics (n=10).

[2] = system: primary human keratinocytes (PHK); assay: Transepithelial electric resistance (TEER) in cultured primary human keratinocytes; assay type: cell-based
Method: (§1) PHK were cultured in Keratinocyte-SFM (Invitrogen/Gibco, Grand Island, N.Y.) with 5 ng/ml human recombinant Epidermal Growth Factor 1-53 (EGF 1-53), 50 μg/ml Bovine Pituitary Extract (BEP), 1% Pen/Strep, and 0.2% Amphotericin B (Invitrogen/Gibco). To induce terminal differentiation PHK were grown in DMEM (Invitrogen/Gibco) with 1% Pen/Strep and 0.2% Amphotericin B (Invitrogen/Gibco). Where it is indicated, 10% heat-inactivated bovine serum (Invitrogen) was added to the differentiation media. […] Briefly, TEER was measured using an EVOMX voltohmmeter (World Precision Instruments, Sarasota, Fla.). To evaluate the paracellular flux of PHK, 0.02% Fluorescein (FITC) Sodium (Fluka, St. Louis, Mo.) in PBS (Invitrogen/Gibco) was added to the upper chamber. Samples were collected from the lower chamber after 30 minutes incubation for PHK culture or 10 and 20 minutes for skin explant. For each experiment paracellular flux was normalized to an empty filter. […] TJ integrity was assessed by trans-epithelial electrical resistance (TEER) and paracellular fluorescein flux (permeability).

[3] = system: primary human keratinocytes (PHK); assay: Paracellular fluorescein flux (permeability) in cultured primary human keratinocytes; assay type: cell-based; settings: histamine 100 μM, P<0.001, n=9, 96 hrs, FIG. 2B
Method: as §1

[4] = system: human skin explant; settings: ex-vivo epidermal explants, histamine 100 μM, 24 hr, P<0.05, n=3
Method: Briefly, TEER was measured using an EVOMX voltohmmeter (World Precision Instruments, Sarasota, Fla.). To evaluate the paracellular flux of PHK, 0.02% Fluorescein (FITC) Sodium (Fluka, St. Louis, Mo.) in PBS (Invitrogen/Gibco) was added to the upper chamber. Samples were collected from the lower chamber after 30 minutes incubation for PHK culture or 10 and 20 minutes for skin explant. For each experiment paracellular flux was normalized to an empty filter.
Skin samples were mounted on filter supports (Whatman Nuclepore Track-Etch Membrane; GE Healthcare Biosciences, Pittsburgh, Pa.) with the epidermal side oriented upward, and sandwiched between two sterile custom made Plexiglas discs with an opening of 3 mm and placed in modified Snapwell™ chambers (Corning, Corning, N.Y., USA). Samples were submerged in DMEM media and kept at 37° C., 5% CO2 for 30 min. Fresh media with histamine (10 or 100 μM) or media alone were then added to both sides of the transwell. TEER and Paracellular flux of fluorescein of skin explant were measured at 24 hr.

[5] = system: ZO-1; settings: nasal and retinal epithelial cells, cited from earlier work
[6] = system: airway epithelial cells; settings: cited from earlier work
[7] = system: human keratinocytes; settings: cited from earlier work

O=C(O)COCCN1CCN(C(c2ccccc2)c2ccc(Cl)cc2)CC1 (centres unmarked) [Cetirizine]
Prevention of histamine-mediated reduction of pro-FLG expression ([1]; PHK co-treated with 100 μM histamine and 10 μM Cetirizine): prevented

NCCc1c[nH]cn1 [histamine]
TEER peak ([2]; PHK differentiated in DMEM serum free media, histamine 100 μM, 96 hours post-stimulation, n=4, FIG. 2C): significantly reduced TEER peak | TEER, Mean Area under the curve (AUC) ([2]; PHK, histamine 10 and 100 μM, P<0.001, n=10, AUC of 0-120 h time points, FIG. 2A): dose dependent reduction of TEER | Permeability to Fluorescein, Mean Fold of control (FOC) [3]: enhancement of permeability | Fluorescein permeability flux, Fold of control (FOC) ([4]; 20 minutes time point, FIG. 3B): 1.3 fold | TEER, Fold of control (FOC) ([4]; FIG. 3A): 0.7 fold | pro-FLG expression ([1]; PHK at day 5 post differentiation, 100 μM histamine, Western blot, n=4): significantly reduced | Expression of ZO-1 [5]: reduce the expression | TJ paracellular permeability [6]: enhance TJ paracellular permeability | Expression of stratum corneum and granulosum barrier proteins (e.g. filaggrin, Loricrin, claudin1, occludin) [7]: reduced the expression

COc1ccc(CN(CCN(C)C)c2ccccn2)cc1 [mepyriamine]
Abrogation of histamine effect on ZO-1 expression ([5]; pretreatment with antagonist): at least partially abrogated
